In US12274898B2, “Substituted benzodiazepines as antibody-drug conjugates” (priority 2018, dated 2025):
Non-standard residues stand in square brackets, D forms with d. Residues, ends and D or L forms follow the SMILES beside them. Dolaproine = CO[C@@H]([C@@H]1CCCN1)[C@@H](C)C(=O)O; Dil = CC[C@H](C)[C@H](NC)[C@@H](CC(=O)O)OC; NMeV = CN[C@H](C(=O)O)C(C)C

Key:
NCI-N87 cancer cells [1] = test: In vitro analysis of benzodiazepine dimer derivatives, cell viability by MTT assay; type: cell-based; settings: 6 days incubation, sigmoidal dose-response fit
Description: NCI-N87 cancer cells were seeded into 24-well plates at 25×10^3 cells/1 mL medium/well. The plates were incubated for 24 hours at 37° C. in a humidified 5% CO2-in-air atmosphere. Benzodiazepine dimer derivatives were dissolved initially in DMSO at a concentration of 10 mM. Serial dilutions were made in DMSO. The series of compound dilutions in DMSO were added to triplicate wells of 24-well plates at 5 μL per well. Three wells on each individual plate received 5 μL of DMSO without compound as controls. The final concentration of DMSO per well was 0.5%. The plates were incubated for 6 days at 37° C. in a humidified 5% CO2-in-air atmosphere. Cell viability was determined by the MTT assay and IC50 was generated using a sigmoidal dose-response nonlinear regression curve fit (GraphPad Software Inc.). Results thereof are shown in FIG. 1, FIG. 2, FIG. 3, and Table 2.

[2] = Solubility test: relative solubility by retention time on analytical HPLC; type: physicochemical; settings: HPLC retention times under acidic (0.1% TFA); RP-C18, 5→95% ACN in water over 15 minutes; measure of relative solubility
Description: A solubility study was conducted to check the relative solubility of D-102, D-103, D-104, D-105, D-106, and D-107 on the retention time using analytical HPLC.

NCI-N87 cancer cells [3] = test: In vitro analysis of protein-drug conjugates (cell cytotoxicity of antibody-drug conjugate), MTT assay; type: cell-based; settings: ADCs, 6 days incubation
Description: NCI-N87cancer cells were seeded in 96-well plates at a density 5000 cells per well in 100 μL of medium, and cultured for 24 hours. The four compounds ADCs in Example 77 were treated by serial dilutions of 1:4 from 50 nM to 0.0003 nM, and the antibody drug conjugate T-DM1 was treated by serial dilutions of 1:4 from 50 nM to 0.0007 nM. The series of compound dilutions in DMSO were added to triplicate wells of […] at 5 μL per well. Three wells on each individual plate received 5 μL of DMSO without compound as controls. The final concentration of DMSO per well was 0.5%. The plates were incubated for 6 days at 37° C. in a humidified 5% CO2-in-air atmosphere. Cell viability was determined by the MTT assay and IC50 was generated using a sigmoidal dose-response nonlinear regression curve fit (GraphPad software Inc.)
Results of in vitro analysis of compounds T-1-AB, T-2-AB, T-3-AB, and T-4-AB, are shown in FIG. 4, FIG. 5, FIG. 6, FIG. 7, and Table 4.

Row | Molecule | IC50 (NCI-N87 cancer cells [1]; Homo sapiens, 144 h) [nM] | Retention time [2] [min] | IC50 (NCI-N87 cancer cells [3]) [nM] | IC50 (NCI-N87 cancer cells [1]) [nM]
1 | COc1cc2c(cc1OCc1cc(COc3cc4c(cc3OC)C(=O)N3Cc5sccc5C[C@H]3C=N4)cc(CN(C)C)c1)N=C[C@@H]1Cc3ccsc3CN1C2=O [Compound D-108] | 0.008 ± 0.001 | – | – | –
2 | COc1cc2c(cc1OCc1cc(O)cc(COc3cc4c(cc3OC)C(=O)N3Cc5c(ncn5C)C[C@H]3C=N4)c1)N=C[C@@H]1Cc3ncn(C)c3CN1C2=O [Compound D-101] | 17.8 ± 6.6 | – | – | –
3 | COc1cc2c(cc1OCc1cc(O)cc(COc3cc4c(cc3OC)C(=O)N3Cc5c(n(C)c[n+]5C)C[C@H]3C=N4)c1)N=C[C@@H]1Cc3c([n+](C)cn3C)CN1C2=O [Compound D-110] | 588 ± 223 | – | – | –
4 | COc1cc2c(cc1OCc1cc(COc3cc4c(cc3OC)C(=O)N3Cc5cc(Br)sc5C[C@H]3C=N4)cc(CN(C)C)c1)N=C[C@@H]1Cc3sc(Br)cc3CN1C2=O [Compound D-109] | 0.025 ± 0.01 | – | – | –
5 | COc1cc2c(cc1OCc1cc(COc3cc4c(cc3OC)C(=O)N3Cc5ccsc5C[C@H]3C=N4)cc(CN(C)C)c1)N=C[C@@H]1Cc3sccc3CN1C2=O [Compound D-104] | 0.013 ± 0.003 | 8.98 | – | –
6 | COc1ccc(C2=CN3C(=O)c4cc(OC)c(OCc5cc(COc6cc7c(cc6OC)C(=O)N6Cc8ccsc8C[C@H]6C=N7)cc(CN(C)C)c5)cc4N=C[C@@H]3C2)cc1 [Compound D-114] | 1.89 | – | – | –
7 | COc1cc2c(cc1OCc1cccc(COc3cc4c(cc3OC)C(=O)N3Cc5ccccc5C[C@H]3C=N4)c1)N=C[C@@H]1Cc3ccccc3CN1C2=O [Ref-2, reference compound] | 0.0089 ± 0.002 | – | – | –
8 | COc1cc2c(cc1OCc1cc(O)cc(COc3cc4c(cc3OC)C(=O)N3Cc5ncn(C)c5C[C@H]3C=N4)c1)N=C[C@@H]1Cc3ccccc3CN1C2=O [Compound D-105] | 0.933 ± 0.344 | 8.05 | – | –
9 | COc1cc2c(cc1OCc1cc(COc3cc4c(cc3OC)C(=O)N3Cc5ccccc5C[C@H]3C=N4)cc(CN(C)C)c1)N=C[C@@H]1Cc3ccccc3CN1C2=O [Ref-1, reference compound] | 0.013 ± 0.003 | 9.30 | – | –
10 | T-DM1 | – | – | 0.213 ± 0.12 | –
11 | COc1cc2c(cc1OCc1cc(O)cc(COc3cc4c(cc3OC)C(=O)N3Cc5ccccc5C[C@H]3C=N4)c1)N=C[C@@H]1Cc3ccccc3CN1C2=O [Ref-3, reference compound] | 0.025 ± 0.018 | 10.00 | – | –
12 | COc1cc2c(cc1OCc1cc(O)cc(COc3cc4c(cc3OC)C(=O)N3Cc5ncn(C)c5C[C@H]3C=N4)c1)N=C[C@@H]1Cc3c(ncn3C)CN1C2=O [Compound D-102] | 4.99 ± 0.785 | 6.50 | – | –
13 | CC[C@H](C)[C@@H]([C@@H](CC(=O)N1CCC[C@H]1[C@H](OC)[C@@H](C)C(=O)N[C@@H](Cc1ccccc1)C(=O)OC)OC)N(C)C(=O)[C@@H](NC(=O)[C@@H](NC)C(C)C)C(C)C [MMAF-OMe, reference compound] (H-[NMeV]V[Dil][Dolaproine]F-OMe) | – | – | – | 0.182
14 | COc1cc2c(cc1OCc1cc(COc3cc4c(cc3OC)C(=O)N3Cc5ccoc5C[C@H]3C=N4)cc(CN(C)C)c1)N=C[C@@H]1Cc3occc3CN1C2=O [Compound D-107] | 0.013 ± 0.002 | 8.60 | – | –
15 | COc1cc2c(cc1OCc1cc(COc3cc4c(cc3OC)C(=O)N3Cc5ncn(C)c5C[C@H]3C=N4)cc(CN(C)C)c1)N=C[C@@H]1Cc3c(ncn3C)CN1C2=O [Compound D-106] | 28.9 ± 15 | 6.02 | – | –
16 | COc1cc2c(cc1OCc1cc(O)cc(COc3cc4c(cc3OC)C(=O)N3Cc5ccsc5C[C@H]3C=N4)c1)N=C[C@@H]1Cc3sccc3CN1C2=O [Compound D-103] | 0.0472 ± 0.01 | 9.75 | – | –
